Test results reported in ChEMBL document CHEMBL1201861, “Genomics of Drug Sensitity in Cancer screening data, Wellcome Trust Sanger Institute”.

Legend:
Assay in all cases: cells
KOSC-2 = assay type: functional, cell-based, Homo sapiens; settings: Homo sapiens, KOSC-2;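 further: growth inhibition of KOSC-2 cells, read out by a cell viability assay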
Description: SANGER: Inhibition of human KOSC-2 cell growth in a cell viability assay.

TE-1 = assay type: functional, cell-based, Homo sapiens; settings: Homo sapiens, TE-1;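 further: growth inhibition of the human TE-1 cell line, read out with a cell viability assay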
Description: SANGER: Inhibition of human TE-1 cell growth in a cell viability assay.

DB = assay type: functional, cell-based; settings: Homo sapiens
Description: SANGER: Inhibition of human DB cell growth in a cell viability assay.

LXF-289 cell line = assay type: functional, cell-based, Homo sapiens; settings: Homo sapiens, LXF-289
Description: SANGER: Inhibition of human LXF-289 cell growth in a cell viability assay.

U-87 MG = assay type: functional, cell-based, U-87MG ATCC; settings: Homo sapiens;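 further: growth inhibition of the cells measured with a viability assay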
Description: SANGER: Inhibition of human U-87-MG cell growth in a cell viability assay.

SW1783 = assay type: functional, cell-based; settings: Homo sapiens;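 further: cell growth inhibition measured with a viability assay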
Description: SANGER: Inhibition of human SW1783 cell growth in a cell viability assay.

NTERA-2-cl-D1 = assay type: functional, cell-based, Homo sapiens; settings: Homo sapiens, NTERA-2-cl-D1;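 further: inhibition of cell growth, measured with a cell viability assay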
Description: SANGER: Inhibition of human NTERA-S-cl-D1 cell growth in a cell viability assay.

RPMI-8226 = assay type: functional, cell-based; settings: Homo sapiens
Description: SANGER: Inhibition of human RPMI-8226 cell growth in a cell viability assay.

RCM-1 = assay type: functional, cell-based, Homo sapiens; settings: Homo sapiens, RCM-1;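 further: growth inhibition of the RCM-1 line, determined with a cell viability readout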
Description: SANGER: Inhibition of human RCM-1 cell growth in a cell viability assay.

T84 = assay type: functional, cell-based, Homo sapiens; settings: Homo sapiens, T84;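 further: growth inhibition measured with a cell viability readout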
Description: SANGER: Inhibition of human T84 cell growth in a cell viability assay.

CAKI-1 = assay type: functional, cell-based, Homo sapiens; settings: Homo sapiens, CAKI-1;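 further: growth inhibition of CAKI-1 cells, measured by a cell viability assay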
Description: SANGER: Inhibition of human CAKI-1 cell growth in a cell viability assay.

NCI-H1793 = assay type: functional, cell-based, Homo sapiens; settings: Homo sapiens, NCI-H1793;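 further: cell growth inhibition, read out by a cell viability assay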
Description: SANGER: Inhibition of human NCI-H1793 cell growth in a cell viability assay.

HCC 2998 = assay type: functional, cell-based, Homo sapiens; settings: Homo sapiens, HCC 2998;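 further: growth inhibition of human HCC2998 cells, measured with a cell viability read-out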
Description: SANGER: Inhibition of human HCC2998 cell growth in a cell viability assay.

SK-MEL-30 = assay type: functional, cell-based; settings: Homo sapiens;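 further: growth inhibition of SK-MEL-30 cells, determined with a cell viability assay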
Description: SANGER: Inhibition of human SK-MEL-30 cell growth in a cell viability assay.

EFM-19 = assay type: functional, cell-based, Homo sapiens; settings: Homo sapiens, EFM-19;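 further: growth inhibition of human EFM-19 cells, measured in a cell viability assay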
Description: SANGER: Inhibition of human EFM-19 cell growth in a cell viability assay.

FTC-133 = assay type: functional, cell-based, Homo sapiens; settings: Homo sapiens, FTC-133
RPMI-7951 = assay type: functional, cell-based, Homo sapiens; settings: Homo sapiens, RPMI-7951
Description: SANGER: Inhibition of human RPMI-7951 cell growth in a cell viability assay.

ATN-1 = assay type: functional, cell-based; settings: Homo sapiens;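 further: growth inhibition of human ATN-1 cells, read out with a cell viability assay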
Description: SANGER: Inhibition of human ATN-1 cell growth in a cell viability assay.

8505C = assay type: functional, cell-based, Homo sapiens; settings: Homo sapiens, 8505C
Description: SANGER: Inhibition of human 8505C cell growth in a cell viability assay.

HT-144 = assay type: functional, cell-based, Homo sapiens; settings: Homo sapiens, HT-144
Description: SANGER: Inhibition of human HT-144 cell growth in a cell viability assay.

RKO = assay type: functional, cell-based, Homo sapiens; settings: Homo sapiens, RKO;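 further: growth inhibition of human RKO cells, read out with a cell viability assay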
Description: SANGER: Inhibition of human RKO cell growth in a cell viability assay.

NCI-N87 = assay type: functional, cell-based, Homo sapiens; settings: Homo sapiens, NCI-N87;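 further: growth inhibition of human NCI-N87 cells, read out with a cell viability assay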
Description: SANGER: Inhibition of human NCI-N87 cell growth in a cell viability assay.

LB771-HNC = assay type: functional, cell-based, Homo sapiens; settings: Homo sapiens, LB771-HNC;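 further: growth inhibition of LB771-HNC human cells, read out with a cell viability assay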
Description: SANGER: Inhibition of human LB771-HNC cell growth in a cell viability assay.

ACHN = assay type: functional, cell-based, Homo sapiens; settings: Homo sapiens, ACHN;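 further: cell viability read-out used to gauge how strongly growth of human ACHN cells is suppressed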
Description: SANGER: Inhibition of human ACHN cell growth in a cell viability assay.

HAL-01 = assay type: functional, cell-based; settings: Homo sapiens;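 further: growth inhibition of human HAL-01 cells, read out with a cell viability assay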
Description: SANGER: Inhibition of human HAL-01 cell growth in a cell viability assay.

HT-29 = assay type: functional, cell-based, Homo sapiens; settings: Homo sapiens, HT-29;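 further: growth inhibition of human HT-29 cells, read out by a cell viability assay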
Description: SANGER: Inhibition of human HT-29 cell growth in a cell viability assay.

SH-4 = assay type: functional, cell-based, Homo sapiens; settings: Homo sapiens, SH-4;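 further: growth inhibition of SH-4 cells, read out with a cell viability assay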
Description: SANGER: Inhibition of human SH-4 cell growth in a cell viability assay.

SF-539 = assay type: functional, cell-based, Homo sapiens; settings: Homo sapiens, SF-539;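 further: Read-out is a cell viability assay, with IC50 reflecting inhibition of cell growth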
Description: SANGER: Inhibition of human SF539 cell growth in a cell viability assay.

DMS-273 = assay type: functional, cell-based, Homo sapiens; settings: Homo sapiens, DMS-273
Description: SANGER: Inhibition of human DMS-273 cell growth in a cell viability assay.

HCC2157 = assay type: functional, cell-based; settings: Homo sapiens;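 further: growth inhibition of the cancer cell line, read out as cell viability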
Description: SANGER: Inhibition of human HCC2157 cell growth in a cell viability assay.

IGR-1 = assay type: functional, cell-based, Homo sapiens; settings: Homo sapiens, IGR-1;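 further: growth inhibition of human IGR-1 cells, read out with a cell viability assay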
Description: SANGER: Inhibition of human IGR-1 cell growth in a cell viability assay.

SW1088 = assay type: functional, cell-based, Homo sapiens; settings: Homo sapiens, SW1088;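 further: growth inhibition of human SW1088 cells, read out by a cell viability assay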
Description: SANGER: Inhibition of human SW1088 cell growth in a cell viability assay.

Panc1005 = assay type: functional, cell-based, Homo sapiens; settings: Homo sapiens, Panc1005;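 further: growth inhibition of human PANC-10-05 cells, measured by a cell viability assay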
Description: SANGER: Inhibition of human PANC-10-05 cell growth in a cell viability assay.

SW780 = assay type: functional, cell-based, Homo sapiens; settings: Homo sapiens, SW780;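 further: growth inhibition of the cells, read out with a cell viability assay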
Description: SANGER: Inhibition of human SW780 cell growth in a cell viability assay.

MDA-MB-231 = assay type: functional, cell-based, Homo sapiens; settings: Homo sapiens, MDA-MB-231
Description: SANGER: Inhibition of human MDA-MB-231 cell growth in a cell viability assay.

TK-10 = assay type: functional, cell-based, Homo sapiens; settings: Homo sapiens, TK-10;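 further: growth inhibition of TK-10 cells, read out in a cell viability assay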
Description: SANGER: Inhibition of human TK10 cell growth in a cell viability assay.

SAS = assay type: functional, cell-based, Homo sapiens; settings: Homo sapiens, SAS;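 further: growth inhibition of SAS cells, read out with a cell viability assay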
Description: SANGER: Inhibition of human SAS cell growth in a cell viability assay.

TE-8 = assay type: functional, cell-based, Homo sapiens; settings: Homo sapiens, TE-8;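 further: growth inhibition of TE-8 cells, measured with a cell viability readout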
Description: SANGER: Inhibition of human TE-8 cell growth in a cell viability assay.

KYSE-510 = assay type: functional, cell-based, Homo sapiens; settings: Homo sapiens, KYSE-510;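 further: cell viability readout used to measure how strongly growth of the cell line is suppressed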
Description: SANGER: Inhibition of human KYSE-510 cell growth in a cell viability assay.

EOL1 = assay type: functional, cell-based; settings: Homo sapiens;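 further: growth inhibition of EoL-1 cells, read out by a cell viability assay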
Description: SANGER: Inhibition of human EoL-1-cell cell growth in a cell viability assay.

BB65-RCC = assay type: functional, cell-based, Homo sapiens; settings: Homo sapiens, BB65-RCC;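 further: growth inhibition of the cell line, measured with a cell viability assay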
Description: SANGER: Inhibition of human BB65-RCC cell growth in a cell viability assay.

NCI-H292 = assay type: functional, cell-based, Homo sapiens; settings: Homo sapiens, NCI-H292;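 further: growth inhibition of NCI-H292 cells, read out with a cell viability assay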
Description: SANGER: Inhibition of human NCI-H292 cell growth in a cell viability assay.

NCI-H1395 = assay type: functional, cell-based, Homo sapiens; settings: Homo sapiens, NCI-H1395;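 further: cell viability assay read-out quantifying reduced proliferation of human NCI-H1395 cells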
Description: SANGER: Inhibition of human NCI-H1395 cell growth in a cell viability assay.

NCI-H1155 = assay type: functional, cell-based; settings: Homo sapiens;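 further: cell growth inhibition measured by a viability assay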
Description: SANGER: Inhibition of human NCI-H1155 cell growth in a cell viability assay.

MZ7-mel = assay type: functional, cell-based, Homo sapiens; settings: Homo sapiens, MZ7-mel;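 further: growth inhibition of human MZ7-mel cells, measured by a cell viability assay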
Description: SANGER: Inhibition of human MZ7-mel cell growth in a cell viability assay.

KINGS-1 = assay type: functional, cell-based, Homo sapiens; settings: Homo sapiens, KINGS-1;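 further: cell viability assay measuring suppression of KINGS-1 cell growth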
Description: SANGER: Inhibition of human KINGS-1 cell growth in a cell viability assay.

SK-MEL-1 = assay type: functional, cell-based; settings: Homo sapiens;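 further: growth inhibition of human SK-MEL-1 cells, read out by a cell viability assay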
Description: SANGER: Inhibition of human SK-MEL-1 cell growth in a cell viability assay.

BB30-HNC = assay type: functional, cell-based, Homo sapiens; settings: Homo sapiens, BB30-HNC;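 further: growth inhibition of the cultured cell line, read out by a cell viability assay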
Description: SANGER: Inhibition of human BB30-HNC cell growth in a cell viability assay.

MZ1-PC = assay type: functional, cell-based, Homo sapiens; settings: Homo sapiens, MZ1-PC;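 further: cell viability assay measuring growth inhibition of human MZ1-PC cells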
Description: SANGER: Inhibition of human MZ1-PC cell growth in a cell viability assay.

L-363 = assay type: functional, cell-based; settings: Homo sapiens
Description: SANGER: Inhibition of human L-363 cell growth in a cell viability assay.

SW 954 = assay type: functional, cell-based, Homo sapiens; settings: Homo sapiens, SW 954;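 further: growth inhibition of SW954 human cancer cells, read out as cell viability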
Description: SANGER: Inhibition of human SW954 cell growth in a cell viability assay.

KMOE-2 = assay type: functional, cell-based; settings: Homo sapiens;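 further: growth inhibition of human KMOE-2 cells, read out with a cell viability assay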
Description: SANGER: Inhibition of human KMOE-2 cell growth in a cell viability assay.

With `COc1cc(F)c(F)c(Nc2ccc(I)cc2F)c1NS(=O)(=O)C1(CC(O)CO)CC1` (stereo unspecified) the IC50 (KOSC-2) was 1.68 µM, the IC50 (TE-1) was > 5 µM and the IC50 (DB) was > 5 µM. The IC50 (LXF-289 cell line) was 3.54 µM, the IC50 (U-87 MG) was > 5 µM and the IC50 (SW1783) was > 5 µM. The IC50 (NTERA-2-cl-D1) was > 5 µM, the IC50 (RPMI-8226) was 4.51 µM and the IC50 (RCM-1) was 0.136 µM. The IC50 (T84) was > 5 µM, the IC50 (CAKI-1) was > 5 µM and the IC50 (NCI-H1793) was > 5 µM. The IC50 (HCC 2998) was 0.0869 µM, the IC50 (SK-MEL-30) was > 5 µM and the IC50 (EFM-19) was > 5 µM. The IC50 (FTC-133) was 4.55 µM, the IC50 (RPMI-7951) was 0.761 µM and the IC50 (ATN-1) was > 5 µM. The IC50 (8505C) was 2.58 µM, the IC50 (HT-144) was 0.049 µM and the IC50 (RKO) was 1.39 µM. For the same compound, the IC50 (NCI-N87) was > 5 µM, the IC50 (LB771-HNC) was > 5 µM and the IC50 (ACHN) was > 5 µM. The IC50 (HAL-01) was > 5 µM, the IC50 (HT-29) was 0.182 µM and the IC50 (SH-4) was 0.0856 µM. The IC50 (SF-539) was 2.21 µM, the IC50 (DMS-273) was > 5 µM and the IC50 (HCC2157) was > 5 µM. The IC50 (IGR-1) was > 5 µM, the IC50 (SW1088) was > 5 µM and the IC50 (Panc1005) was > 5 µM. The IC50 (SW780) was 0.758 µM, the IC50 (MDA-MB-231) was 1.12 µM and the IC50 (TK-10) was 2.21 µM. For the same compound, the IC50 (SAS) was 3.94 µM, the IC50 (TE-8) was 1.12 µM and the IC50 (KYSE-510) was > 5 µM. For the same compound, the IC50 (EOL1) was 0.399 µM, the IC50 (BB65-RCC) was 3.66 µM and the IC50 (NCI-H292) was 0.64 µM. The IC50 (NCI-H1395) was > 5 µM, the IC50 (NCI-H1155) was > 5 µM and the IC50 (MZ7-mel) was 0.375 µM. The IC50 (KINGS-1) was 2.69 µM, the IC50 (SK-MEL-1) was > 5 µM and the IC50 (BB30-HNC) was 1.58 µM. The IC50 (MZ1-PC) was 1.34 µM, the IC50 (L-363) was > 5 µM and the IC50 (SW 954) was > 5 µM.

In the case of `C=C1C(=O)O[C@@H]2C3O[C@]3(C)CC/C=C(\C)CC[C@@H]12` (stereo partly specified), the IC50 (TE-1) is reported as > 5 µM, the IC50 (DB) is reported as > 5 µM and the IC50 (LXF-289 cell line) is reported as > 5 µM. The IC50 (U-87 MG) was > 5 µM, the IC50 (NTERA-2-cl-D1) was > 5 µM and the IC50 (RPMI-8226) was > 5 µM. The IC50 (HCC 2998) was > 5 µM, the IC50 (ATN-1) was > 5 µM and the IC50 (HT-144) was > 5 µM. The IC50 (RKO) was > 5 µM, the IC50 (NCI-N87) was > 5 µM and the IC50 (LB771-HNC) was > 5 µM. For the same compound, the IC50 (HAL-01) was > 5 µM, the IC50 (SH-4) was > 5 µM and the IC50 (SF-539) was 2.47 µM. The IC50 (HCC2157) was > 5 µM, the IC50 (TK-10) was > 5 µM and the IC50 (TE-8) was > 5 µM. The IC50 (EOL1) was > 5 µM, the IC50 (BB65-RCC) was > 5 µM and the IC50 (NCI-H1395) was > 5 µM. The IC50 (NCI-H1155) was > 5 µM, the IC50 (MZ7-mel) was > 5 µM and the IC50 (KINGS-1) was > 5 µM. The IC50 (SK-MEL-1) was > 5 µM, the IC50 (BB30-HNC) was > 5 µM and the IC50 (MZ1-PC) was > 5 µM. For the same compound, the IC50 (L-363) was > 5 µM, the IC50 (KMOE-2) was > 5 µM and the IC50 (SW 954) was > 5 µM.
